Reference: patent US12129490B2, “Methods for generating hepatocytes and cholangiocytes from pluripotent stem cells” (UNIVERSITY HEALTH NETWORK, priority 2018, dated 2024)
Values joined by “and” are separate entries in the source; they are usually repeats but may differ in a detail not shown here. Equal entries are not always repeated.

What was measured:
smad2 = settings: versus SB431 542; cited from earlier work
human and mouse ESC = settings: cited from earlier work
Notch pathway = assay: Hepatoblast co-culture with OP9 in presence of Notch antagonist GSI; assay type: cell-based, human
Procedure: RT-qPCR-based expression analysis of ALB and CK19 in the hepatoblast-derived cells following co-culture with OP9 in media supplemented with HGF (20 ng/ml), EGF (50 ng/ml), and TGFβ1 (5 ng/ml) in the presence or absence of the gamma-secretase inhibitor (GSI), an antagonist of the Notch pathway. Cells were harvested and analyzed at days 30, 33, and 36 of culture.
FIG. 15B is an RT-qPCR based expression analysis of the Notch target genes HES1, HES5 and HEY1 in hepatoblast-derived cells following culture with or without OP9. Cells were assayed at day 36 of culture. […] This value was set as 1.
To investigate the differentiation of cholangiocyte-like cells, H9-derived day 27 hepatic progenitors were co-cultured with OP 9 cells (Notch signaling donor) in the presence of HGF 20 ng/ml and EGF 50 ng/ml. The H9-derived day 27 hepatic progenitors were derived as in Example 1. When the hepatic progenitor cells received Notch signaling activation from OP-9 cells, the albumin positive cells were completely diminished and turned into CK19 positive cells with an organized branching appearance (FIG. 10a, b).
(§1) To investigate the effect of Notch signaling on cholangiocyte development, we co-cultured the hepatoblast population (day 25) with OP9 stromal cells that are known to express different Notch ligands including Jagged-1^4,5. […] To overcome this problem, we generated 3D aggregates from the day 25 monolayer cells and cultured them on the OP9 stromal cells.
(FIG. 22) Aggregates derived from both lines generated branched structures consisting of CK19^+ALB cells following co-culture with the OP9 stromal cells. As observed with the H9-derived populations, the downregulation of ALB expression and the development of these structures were NOTCH dependent events.

Notch signaling = assay: 3D gel culture of chimeric hepatoblast/OP9 aggregates in presence of GSI; assay type: cell-based, human; settings: 3D collagen/Matrigel gel
Procedure: H9-derived day 25 hepatoblast were mixed (aggregated) with OP9 stromal cells at a ratio of 4:1, in low cluster culture dishes for 48 hours. The chimeric aggregates were embedded in a mixture of type 1 collagen (1.2 mg/ml) and Matrigel (40%) to establish a 3D gel culture. The cultures were maintained over 2 weeks in the media containing of HGF, EGF and TGFβ1 in the presence or absence of GSI.
FIG. 16C is an RT-qPCR based expression analyses of pooled structures that developed in the 3D gels. The cultures were harvested at day 44 and the cells analyzed for expression of genes indicative of the hepatocyte (ALB, AFP and CYP3A7) and cholangiocyte (CK19, Sox9 and CFTR) lineages.
To determine if the branching observed in the OP9 co-cultures is indicative of the initial stages of bile duct development, we next established a culture system to promote the growth of 3D cellular structures. With this approach, chimeric aggregates consisting of day 25 hESC-derived cells and OP9 stromal cells (GFP^+) were cultured in a media mixture consisting of 1.2 mg/ml collagen, 40% Matrigel and HGF, EGF and TGFβ1 (FIG. 23a). Within 2 weeks of culture in these conditions, the aggregates underwent dramatic morphological changes and formed either tubular structures, hollow cysts or a mixture of both (FIG. 16a,b). The cysts were the most abundant structures in these cultures (FIG. 16b). […] The cells in the ducts also expressed the Cystic fibrosis transmembrane conductance regulator (CFTR), a transmembrane channel that is first expressed in the adult biliary tract. As with ZO-1, the CFTR protein was detected predominantly on the apical side of the duct-like structure. Western blot analyses confirmed the presence of the protein in the population generated from the chimeric aggregates (FIG. 23D). […] The lack of hepatic markers, including ALB, AFP and CYP3A7 and the upregulation of expression the cholangiocyte markers CK19, SOX9 and CFTR in these structures was confirmed by RT-qPCR analyses (FIG. 16c). […]

day 44 aggregates = assay: CYP expression in day 44 aggregates with Wnt and MEK/Erk inhibition plus cAMP agonist; assay type: cell-based, human; settings: together with cAMP, relative to adult liver
CYP1A2 = molecular target: T1, CYP1A2 (Homo sapiens, UniProt P05177); assay: CYP1A2 activity, phenacetin metabolism by HPLC
T1 sequence (P05177 1-516): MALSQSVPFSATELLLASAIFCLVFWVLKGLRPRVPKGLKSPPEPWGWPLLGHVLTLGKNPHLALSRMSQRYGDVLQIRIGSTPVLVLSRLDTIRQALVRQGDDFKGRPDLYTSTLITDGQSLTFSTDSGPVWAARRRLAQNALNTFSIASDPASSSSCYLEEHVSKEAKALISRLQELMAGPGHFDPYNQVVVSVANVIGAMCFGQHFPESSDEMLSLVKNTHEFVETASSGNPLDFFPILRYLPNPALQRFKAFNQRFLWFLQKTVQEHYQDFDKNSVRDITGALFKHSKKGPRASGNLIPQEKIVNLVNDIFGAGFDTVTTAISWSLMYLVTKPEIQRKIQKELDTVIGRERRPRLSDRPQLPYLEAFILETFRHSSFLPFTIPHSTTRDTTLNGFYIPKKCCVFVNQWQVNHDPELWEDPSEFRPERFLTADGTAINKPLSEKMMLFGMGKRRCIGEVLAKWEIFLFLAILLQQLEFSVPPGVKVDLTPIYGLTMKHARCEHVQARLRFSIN

hepatic aggregates = assay: Culture of hepatic aggregates at cAMP stage, HGF and OSM; assay type: cell-based, human
Procedure: The cell aggregates were cultured in HGF, Dex and OSM until day 32 at which point cAMP was added. […] In some experiments, HGF was also removed from the cultures when cAMP analog and/or cAMP agonist is added.

[1] = system: hPSC-derived hepatoblast aggregates; assay: Growth factor addition to hepatoblast aggregates co-cultured on OP9 stroma; assay type: cell-based, human; settings: for development of CK19+ clusters: OP9 co-culture
Source text: as §1

[2] = OP9 co-culture with HGF, EGF, TGFβ1

Cc1cccc(-c2nn(C(=S)Nc3ccccc3)cc2-c2ccnc3ccccc23)n1 [A83-01]
inhibition of smad2, relative potency (smad2): more potent

O=C1Nc2cc(Br)ccc2/C1=C1/Nc2ccccc2/C1=N\O [BIO, 6-bromo-Indirubin-3′-Oxime]
pluripotency of ESC (human and mouse ESC): maintain pluripotency

CC(C)C[C@H](NC(=O)[C@H](Cc1ccccc1)C[C@@H](O)[C@H](Cc1ccccc1)NC(=O)OC(C)(C)C)C(=O)N[C@@H](Cc1ccccc1)C(N)=O [GSI]
albumin and CK19 positive cells (Notch pathway; 10 μM, H9-derived day 27 progenitors with OP9, HGF 20 ng/ml, EGF 50 ng/ml): albumin and CK19 positive cells were found | ALB expression (Notch pathway; [2]): blocked the downregulation | development of branched structures (Notch pathway; [2]): inhibited | proportion of CK19+ cells (Notch pathway; [2]): reduced | increase in expression of Notch targets HES1, HES5 and HEY1 (Notch pathway; nine days of culture on OP9): block | formation of duct-like structures and cysts (Notch signaling): prevented | expression of genes associated with cholangiocyte development (CK19, Sox9 and CFTR) (Notch signaling; day 44): decrease | expression of hepatocyte markers (ALB, AFP and CYP3A7) (Notch signaling; day 44): increase

O=C(NOC[C@H](O)CO)c1ccc(F)c(F)c1Nc1ccc(I)cc1F [MEK/ErK inhibitor]
levels of CYP3A4 expression (day 44 aggregates): comparable to those found in the adult liver

Cc1c(OCC(F)(F)F)ccnc1C[S+]([O-])c1nc2ccccc2[nH]1 (stereo not drawn) [lansoprazole]
increase in CYP1A2 activity on induction (CYP1A2; 8-Br-cAMP-treated hESC-derived cells, induction 72 hours): 3.4 fold | inducibility of CYP1A2 activity (CYP1A2; H9-derived cells): inducible | inducibility of CYP1A2 activity (CYP1A2; cells not treated with 8-Br-cAMP): not inducible | inducible CYP1A2 activity (CYP1A2; iPSC-derived cells): not detectable | induction of CYP1A2 activity (CYP1A2; two independent primary hepatocyte samples): 18 fold and 9 fold

HGF: hepatocyte growth factor
survival of aggregates (hepatic aggregates; 10 ng/ml (reduced from 20 ng/ml) when cAMP was added): promote survival of the aggregates | development of CK19+ clusters [1]: little effect

OSM: Oncostatin M
induction of expression of Phase 1 CYP enzymes, in particular CYP 3A4 (hepatic aggregates; OSM maintained): inhibitory effect

TGFβ1: transforming growth factor beta 1
development of CK19+ clusters [1]: increase in the size | cholangiocyte branching ([1]; hepatoblasts co-cultured with OP9): promotes cholangiocyte branching
